Measurements from patent publication US9695155B2, “Herbicidal substituted pyrimidinyloxy benzene compounds” (E. I. DU PONT DE NEMOURS AND COMPANY, priority 2013, dated 2017).

Columns and labels:
[1] = tested on: giant foxtail; assay: Test A preemergence; format: in vivo, Setaria faberii; conditions: for Plant response rating, Foxtail, Giant: 125 g ai/ha; for Foxtail, Giant plant response rating: 500 g ai/ha
In short: (§1)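 Compounds in non-phytotoxic solvent with surfactant applied as soil spray preemergence, or postemergence to plants 2-10 cm at one- to two-leaf stage, in loam/sand. After approximately 10 days in greenhouse, injury rated visually versus untreated controls, 0 (no effect) to 100 (complete control).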

[2] = tested on: morningglory; assay: Test C postemergence; format: in vivo, Ipomoea coccinea; conditions: for Plant response rating, Morningglory: scale 0 to 100 (0 no effect, 100 complete control)
In short: (§2)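 Sown in loam/sand → sprayed pre-emergence; or grown to 1–4 leaves in peat mix → sprayed post-emergence. Same solvent/surfactant formulation both ways. Greenhouse 13–15 d. Score 0–100 visual.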

[3] = tested on: pigweed; assay: Test A postemergence; format: in vivo, Amaranthus retroflexus; conditions: 0 to 100 scale where 0 is no effect and 100 is complete control
In short: as §1

[4] = tested on: barnyardgrass; assay: Test C preemergence; format: in vivo, Echinochloa crus-galli; conditions: for Barnyardgrass plant response rating: preemergence; for Plant response rating, Barnyardgrass: Preemergence, 31 g ai/ha, scale 0 to 100, 0 no effect, 100 complete control
In short: as §2

[5] = tested on: pigweed; assay: Test C postemergence; format: in vivo, Amaranthus retroflexus; conditions: for Plant response rating, Pigweed: scale 0 to 100 (0 no effect, 100 complete control)
In short: as §2

[6] = tested on: Italian ryegrass; assay: Test C postemergence; format: in vivo, Lolium multiflorum; conditions: for Plant response rating, Ryegrass, Italian: scale 0 to 100 (0 no effect, 100 complete control)
In short: as §2

[7] = tested on: kochia; assay: Test C postemergence; format: in vivo, Kochia scoparia; conditions: for Kochia plant response rating / Plant response rating, Kochia: scale 0 to 100 (0 no effect, 100 complete control)
In short: as §2

[8] = tested on: wheat; assay: Test A postemergence; format: in vivo, Triticum aestivum; conditions: 0 to 100 scale where 0 is no effect and 100 is complete control
In short: as §1

[9] = tested on: wheat, winter; assay: Test C preemergence; format: in vivo, Triticum aestivum; conditions: for Wheat plant response rating: preemergence; for Plant response rating, Wheat: Preemergence, 31 g ai/ha, scale 0 to 100, 0 no effect, 100 complete control
In short: as §2

[10] = tested on: lambsquarters; assay: Test C preemergence; format: in vivo, Chenopodium album; conditions: for Lambsquarters plant response rating: preemergence; for Plant response rating, Lambsquarters: Preemergence, 31 g ai/ha, scale 0 to 100, 0 no effect, 100 complete control
In short: as §2

[11] = tested on: barnyardgrass; assay: Test B flooded paddy test; format: in vivo, Echinochloa crus-galli; conditions: Flood, 250 g ai/ha; 0 to 100 scale where 0 is no effect and 100 is complete control
In short: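 Greenhouse flooded-pot test: compounds dosed into 3 cm standing water over 2-leaf plants, flood held constant. Rated visually after 13–15 days on 0–100 (complete control = 100); a dash marks no test result.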

[12] = 0 to 100 scale where 0 is no effect and 100 is complete control
[13] = 0 to 100 scale, 0 no effect, 100 complete control, approx. 10 days
[14] = Postemergence, 31 g ai/ha, 13 to 15 days
[15] = 16 g ai/ha, scale 0 to 100 (0 no effect, 100 complete control)
[16] = 62 g ai/ha, scale 0 (no effect) to 100 (complete control)
[17] = 125 g ai/ha, scale 0 (no effect) to 100 (complete control)
[18] = 16 g ai/ha, postemergence, visual rating, 13 to 15 days
[19] = 16 g ai/ha, postemergence, 0 is no effect, 100 is complete control
[20] = 125 g ai/ha, postemergence, visual rating

SMILES	Plant response rating, Foxtail, Giant [1, 12]	Plant response rating, Morningglory ([2]; Postemergence, 62 g ai/ha)	Plant response rating, Pigweed ([3]; 500 g ai/ha)	Barnyardgrass plant response rating [4, 15]	Barnyardgrass plant response rating [4, 16]	Barnyardgrass plant response rating [4, 17]	Plant response rating, Barnyardgrass [4]	Plant response rating, Pigweed ([5]; Postemergence, 62 g ai/ha)	Plant response rating, Ryegrass, Italian ([6]; Postemergence, 62 g ai/ha)	Plant response rating, Kochia ([7]; Postemergence, 62 g ai/ha)	Plant response rating, Wheat ([8]; 500 g ai/ha)	Wheat plant response rating [9, 15]	Wheat plant response rating [9, 16]	Wheat plant response rating [9, 17]	Plant response rating, Wheat [9]	Lambsquarters plant response rating [10, 15]	Lambsquarters plant response rating [10, 16]	Lambsquarters plant response rating [10, 17]	Plant response rating, Lambsquarters [10]	Plant response rating, Barnyardgrass [11]	also measured
N#Cc1cccc(Oc2ncc(F)cn2)c1-n1cc(I)cn1 [Compound 86]	100	85	100	5	40	95	10	65	5	90	90	0	0	35	0	100	100	100	100	0	Foxtail, Giant plant response rating [1, 13]: 100; Plant response rating (0 to 100), Morningglory ([2]; 125 g ai/ha, postemergence): 85; Plant response rating, Morningglory [2, 14]: 80; Plant response rating, Pigweed ([3]; 125 g ai/ha): 100; Plant response rating (0 to 100), Pigweed ([5]; 125 g ai/ha, postemergence): 80; Plant response rating, Pigweed [5, 14]: 65; Plant response rating (0 to 100), Ryegrass, Italian ([6]; 125 g ai/ha, postemergence): 5; Plant response rating, Ryegrass, Italian [6, 14]: 0; Kochia plant response rating [7, 18]: 50; Plant response rating (0 to 100), Kochia ([7]; 125 g ai/ha, postemergence): 95; Plant response rating, Kochia [7, 14]: 60; Plant response rating, Wheat ([8]; 125 g ai/ha): 50
Clc1cnc(Oc2cccc(Br)c2-n2cc(Br)nn2)nc1 [Compound 129]	100	80	100	5	40	90	15	80	20	95	70	0	0	15	0	50	100	100	40	0	Foxtail, Giant plant response rating [1, 12]: 100; Plant response rating (0 to 100), Morningglory [2, 19]: 75; Plant response rating, Morningglory [2, 20]: 85; Pigweed plant response rating ([3]; 125 g ai/ha): 100; Plant response rating (0 to 100), Pigweed [5, 19]: 70; Plant response rating, Pigweed [5, 20]: 90; Plant response rating (0 to 100), Ryegrass, Italian [6, 19]: 0; Plant response rating, Ryegrass, Italian [6, 20]: 5; Plant response rating (0 to 100), Kochia [7, 19]: 90; Plant response rating, Kochia [7, 20]: 100; Wheat plant response rating ([8]; 125 g ai/ha): 0
FCc1cccc(Oc2ncc(Cl)cn2)c1-n1cc(Br)cn1 [Compound 83]	100	75	100	5	45	90	5	75	5	90	60	0	0	0	0	100	100	100	100	0	Foxtail, Giant plant response rating [1, 13]: 100; Plant response rating (0 to 100), Morningglory ([2]; 125 g ai/ha, postemergence): 85; Plant response rating, Morningglory [2, 14]: 65; Plant response rating, Pigweed ([3]; 125 g ai/ha): 100; Plant response rating (0 to 100), Pigweed ([5]; 125 g ai/ha, postemergence): 85; Plant response rating, Pigweed [5, 14]: 75; Plant response rating (0 to 100), Ryegrass, Italian ([6]; 125 g ai/ha, postemergence): 5; Plant response rating, Ryegrass, Italian [6, 14]: 0; Kochia plant response rating [7, 18]: 60; Plant response rating (0 to 100), Kochia ([7]; 125 g ai/ha, postemergence): 95; Plant response rating, Kochia [7, 14]: 70; Plant response rating, Wheat ([8]; 125 g ai/ha): 0
CCOc1cn(-c2c(Br)cccc2Oc2ncc(Cl)cn2)nn1 [Compound 84]	70	85	100	0	40	85	25	80	0	70	80	0	0	0	0	75	100	100	85	0	Foxtail, Giant plant response rating [1, 13]: 100; Plant response rating (0 to 100), Morningglory ([2]; 125 g ai/ha, postemergence): 85; Plant response rating, Morningglory [2, 14]: 70; Plant response rating, Pigweed ([3]; 125 g ai/ha): 100; Plant response rating (0 to 100), Pigweed ([5]; 125 g ai/ha, postemergence): 85; Plant response rating, Pigweed [5, 14]: 50; Plant response rating (0 to 100), Ryegrass, Italian ([6]; 125 g ai/ha, postemergence): 0; Plant response rating, Ryegrass, Italian [6, 14]: 0; Kochia plant response rating [7, 18]: 55; Plant response rating (0 to 100), Kochia ([7]; 125 g ai/ha, postemergence): 80; Plant response rating, Kochia [7, 14]: 55; Plant response rating, Wheat ([8]; 125 g ai/ha): 30
